Test results as given in patent US4461895A, “Dibenzo(de,g)quinolines” (Warner-Lambert Company, priority 1981, dated 1984).

Tests used:
cats = test: coughing experiment according to Domenjoz on cats (antitussive effect); type: in vivo
From the text: The new compounds thereby considerably exceed the known antitussive action of 5,6,6a,7-tetrahydro-1,2,9,10-tetramethoxy-5-methyl-4H-dibenzo(de,g)quinoline (glaucine) with regard to the strength and length of activity.
(§1) The following Table summarises some of the animal experimental results obtained: […]

toxicity in mice (LD50) = conditions: mouse, in vivo
From the text: as §1

SMILES: COc1cc2c(cc1OC)-c1c(OC)c(OC)cc3c1C(C2)N(C)CC3 (stereo not drawn) [glaucine]
- antitussive effect: duration of cough inhibition (cats; 2.0 mg./kg., i.v.): 10 min
- antitussive effect: duration of cough inhibition (cats; 4.0 mg./kg., id.): 40 min
- antitussive effect: cough inhibition (cats; 10.0 mg./kg., sc., result in words): no cough
- LD50 (toxicity in mice (LD50); iv): 58.3 mg/kg
- LD50 (toxicity in mice (LD50); po, ig.): 531 mg/kg
- LD50 (toxicity in mice (LD50); sc.): 20 mg/kg

SMILES: C=CCN1CCc2cc(OC)c(OC)c3c2C1Cc1cc(OC)c(OC)cc1-3 (single isomer, unassigned; (+)) [Example 1, (+)-6-Allyl-5,6,6a,7-tetrahydro-1,2,9,10-tetramethoxy-4H-dibenzo(de,g)quinoline]
- antitussive effect: duration of cough inhibition (cats; 1.0 mg./kg., i.v.): 20 min
- antitussive effect: duration of cough inhibition (cats; 6.25 mg./kg., id.): 90 min
- antitussive effect: duration of cough inhibition (cats; 6.25 mg./kg., sc.): 40 min
- LD50 (toxicity in mice (LD50); iv): 150 mg/kg
- LD50 (toxicity in mice (LD50); po, ig.): ~1200 mg/kg
- LD50 (toxicity in mice (LD50); sc.): 150 mg/kg
